Reference: EPA's ToxValDB 9.5

Tested on: Rattus norvegicus
Conditions: short-term, duration: 28 days, oral, gavage, Sprague-Dawley

O=C(O)C(F)(F)C(F)(F)C(F)(F)C(F)(F)C(F)(F)F [Perfluorohexanoic acid] gave an LOEL (F, Clinical chemistry_Alanine aminotransferase) of 500 mg/kg-day, an NOEL (F, Clinical chemistry_Albumin) of 1000 mg/kg-day and an LOEL (F, Clinical chemistry_Albumin/globulin ratio) of 1000 mg/kg-day. It also gave an LOEL (F, Clinical chemistry_Alkaline phosphatase) of 1000 mg/kg-day, an LOEL (F, Clinical chemistry_Aspartate aminotransferase) of 500 mg/kg-day and an NOEL (F, Clinical chemistry_Cholesterol) of 1000 mg/kg-day. For the same compound, the NOEL (F, Clinical chemistry_Creatinine kinase) was 1000 mg/kg-day, the NOEL (F, Clinical chemistry_Direct bilirubin) was 1000 mg/kg-day and the NOEL (F, Clinical chemistry_Free thyroxine) was 1000 mg/kg-day. For the same compound, the LOEL (F, Clinical chemistry_Globulin) was 1000 mg/kg-day, the NOEL (F, Clinical chemistry_Indirect bilirubin) was 1000 mg/kg-day and the NOEL (F, Clinical chemistry_Sorbitol dehydrogenase) was 1000 mg/kg-day. The NOEL (F, Clinical chemistry_Testosterone) was 1000 mg/kg-day, the NOEL (F, Clinical chemistry_Thyroid stimulating hormone) was 1000 mg/kg-day and the LOEL (F, Clinical chemistry_Total bile acids) was 1000 mg/kg-day. It also gave an LOEL (F, Clinical chemistry_Total protein) of 1000 mg/kg-day, an NOEL (F, Clinical chemistry_Total thyroxine) of 1000 mg/kg-day and an NOEL (F, Clinical chemistry_Total triiodothyronine) of 1000 mg/kg-day. For the same compound, the NOEL (F, Clinical chemistry_Triglycerides) was 1000 mg/kg-day, the LOEL (F, Gene expression_Acox1) was 500 mg/kg-day and the LOEL (F, Gene expression_Cyp2b1) was 62.6 mg/kg-day. It also gave an LOEL (F, Gene expression_Cyp2b2) of 62.6 mg/kg-day, an LOEL (F, Gene expression_Cyp4a1) of 500 mg/kg-day and an LOEL (F, Hematology_Erythrocytes) of 250 mg/kg-day. For the same compound, the LOEL (F, Hematology_Hematocrit) was 250 mg/kg-day, the LOEL (F, Hematology_Hemoglobin) was 250 mg/kg-day and the LOEL (F, Hematology_Mean corpuscular hemoglobin concentration) was 1000 mg/kg-day. It also gave an LOEL (F, Hematology_Mean corpuscular volume) of 500 mg/kg-day, an LOEL (F, Hematology_Platelets) of 1000 mg/kg-day and an LOEL (F, Hematology_Reticulocytes) of 500 mg/kg-day. For the same compound, the NOEL (F, Nonneoplastic effects_Bone marrow - Hypocellularity) was 1000 mg/kg-day, the NOEL (F, Nonneoplastic effects_Forestomach - Epithelium, hyperplasia) was 1000 mg/kg-day and the NOEL (F, Nonneoplastic effects_Forestomach - Inflammation, chronic active) was 1000 mg/kg-day. For the same compound, the LOEL (F, Nonneoplastic effects_Kidney - Nephropathy, chronic progressive) was 1000 mg/kg-day, the NOEL (F, Nonneoplastic effects_Liver - Hepatocyte, Necrosis) was 1000 mg/kg-day and the LOEL (F, Nonneoplastic effects_Liver - Hepatocyte, cytoplasmic alteration) was 1000 mg/kg-day. It also gave an LOEL (F, Nonneoplastic effects_Liver - Hepatocyte, hypertrophy) of 1000 mg/kg-day, an NOEL (F, Nonneoplastic effects_Liver - Hepatocyte, vacuolization cytoplasmic) of 1000 mg/kg-day and an NOEL (F, Nonneoplastic effects_Lymph nodes - Mandibular, atrophy) of 1000 mg/kg-day. For the same compound, the NOEL (F, Nonneoplastic effects_Lymph nodes - Mesenteric, atrophy) was 1000 mg/kg-day, the LOEL (F, Nonneoplastic effects_Nose - Olfactory epithelium, degeneration) was 250 mg/kg-day and the LOEL (F, Nonneoplastic effects_Nose - Olfactory epithelium, hyperplasia) was 250 mg/kg-day. It also gave an LOEL (F, Nonneoplastic effects_Nose - Olfactory epithelium, inflammation, suppurative) of 500 mg/kg-day, an NOEL (F, Nonneoplastic effects_Nose - Respiratory epithelium, hyperplasia) of 1000 mg/kg-day and an NOEL (F, Nonneoplastic effects_Nose - Respiratory epithelium, inflammation, chronic active) of 1000 mg/kg-day. It also gave an NOEL (F, Nonneoplastic effects_Spleen - Atrophy) of 1000 mg/kg-day, an LOEL (F, Nonneoplastic effects_Spleen - Extramedullary hematopoiesis, increased) of 1000 mg/kg-day and an NOEL (F, Nonneoplastic effects_Thymus - Atrophy) of 1000 mg/kg-day. The NOEL (F, Nonneoplastic effects_Thymus - Lymphocyte, apoptosis) was 1000 mg/kg-day, the NOEL (F, Nonneoplastic effects_Thyroid gland - Follicular cell hypertrophy) was 1000 mg/kg-day and the LOEL (F, Organ weights_Liver - Absolute) was 500 mg/kg-day. It also gave an LOEL (F, Organ weights_Liver - Relative) of 500 mg/kg-day, an NOEL (F, Organ weights_R. adrenal gland - Absolute) of 1000 mg/kg-day and an NOEL (F, Organ weights_R. adrenal gland - Relative) of 1000 mg/kg-day. It also gave an LOEL (F, Organ weights_R. kidney - Absolute) of 1000 mg/kg-day, an LOEL (F, Organ weights_R. kidney - Relative) of 1000 mg/kg-day and an NOEL (F, Organ weights_Spleen - Absolute) of 1000 mg/kg-day. The NOEL (F, Organ weights_Spleen - Relative) was 1000 mg/kg-day, the NOEL (F, Organ weights_Thymus - Absolute) was 1000 mg/kg-day and the NOEL (F, Organ weights_Thymus - Relative) was 1000 mg/kg-day. For the same compound, the NOEL (F, Organ weights_Thyroid gland - Absolute) was 1000 mg/kg-day, the NOEL (F, Organ weights_Thyroid gland - Relative) was 1000 mg/kg-day and the NOEL (F, Survival rates) was 1000 mg/kg-day. It also gave an NOEL (F, body weight) of 1000 mg/kg-day, an LOEL (M, Clinical chemistry_Alanine aminotransferase) of 500 mg/kg-day and an LOEL (M, Clinical chemistry_Albumin) of 125 mg/kg-day. For the same compound, the LOEL (M, Clinical chemistry_Albumin/globulin ratio) was 250 mg/kg-day, the LOEL (M, Clinical chemistry_Alkaline phosphatase) was 500 mg/kg-day and the LOEL (M, Clinical chemistry_Aspartate aminotransferase) was 500 mg/kg-day. It also gave an LOEL (M, Clinical chemistry_Cholesterol) of 62.6 mg/kg-day, an NOEL (M, Clinical chemistry_Creatinine kinase) of 1000 mg/kg-day and an NOEL (M, Clinical chemistry_Direct bilirubin) of 1000 mg/kg-day. It also gave an LOEL (M, Clinical chemistry_Free thyroxine) of 62.6 mg/kg-day, an LOEL (M, Clinical chemistry_Globulin) of 125 mg/kg-day and an LOEL (M, Clinical chemistry_Sorbitol dehydrogenase) of 1000 mg/kg-day. It also gave an NOEL (M, Clinical chemistry_Testosterone) of 1000 mg/kg-day, an NOEL (M, Clinical chemistry_Thyroid stimulating hormone) of 1000 mg/kg-day and an LOEL (M, Clinical chemistry_Total bile acids) of 1000 mg/kg-day. For the same compound, the LOEL (M, Clinical chemistry_Total protein) was 250 mg/kg-day, the LOEL (M, Clinical chemistry_Total thyroxine) was 62.6 mg/kg-day and the LOEL (M, Clinical chemistry_Total_triiodothyronine) was 62.6 mg/kg-day. The NOEL (M, Clinical chemistry_Triglycerides) was 1000 mg/kg-day, the LOEL (M, Gene expression_Acox1) was 500 mg/kg-day and the LOEL (M, Gene expression_Acyl-CoA oxidase) was 250 mg/kg-day. The LOEL (M, Gene expression_Cyp2b1) was 62.6 mg/kg-day, the LOEL (M, Gene expression_Cyp2b2) was 62.6 mg/kg-day and the LOEL (M, Gene expression_Cyp4a1) was 62.6 mg/kg-day. It also gave an LOEL (M, Hematology_Erythrocytes) of 62.6 mg/kg-day, an LOEL (M, Hematology_Hematocrit) of 62.6 mg/kg-day and an LOEL (M, Hematology_Hemoglobin) of 62.6 mg/kg-day. The LOEL (M, Hematology_Mean corpuscular hemoglobin concentration) was 1000 mg/kg-day, the LOEL (M, Hematology_Mean corpuscular volume) was 250 mg/kg-day and the LOEL (M, Hematology_Platelets) was 500 mg/kg-day. For the same compound, the LOEL (M, Hematology_Reticulocytes) was 500 mg/kg-day, the NOEL (M, Nonneoplastic effects_Bone marrow - Hypocellularity) was 1000 mg/kg-day and the NOEL (M, Nonneoplastic effects_Epididymis - Duct, exfoliated germ cell) was 1000 mg/kg-day. It also gave an NOEL (M, Nonneoplastic effects_Epididymis - Epithelium, apoptosis) of 1000 mg/kg-day, an NOEL (M, Nonneoplastic effects_Epididymis - Hypospermia) of 1000 mg/kg-day and an NOEL (M, Nonneoplastic effects_Forestomach - Epithelium, hyperplasia) of 1000 mg/kg-day. The NOEL (M, Nonneoplastic effects_Forestomach - Inflammation, chronic active) was 1000 mg/kg-day, the NOEL (M, Nonneoplastic effects_Kidney - Nephropathy, chronic progressive) was 1000 mg/kg-day and the NOEL (M, Nonneoplastic effects_Liver - Hepatocyte, Necrosis) was 1000 mg/kg-day. It also gave an LOEL (M, Nonneoplastic effects_Liver - Hepatocyte, cytoplasmic alteration) of 1000 mg/kg-day, an LOEL (M, Nonneoplastic effects_Liver - Hepatocyte, hypertrophy) of 500 mg/kg-day and an NOEL (M, Nonneoplastic effects_Liver - Hepatocyte, vacuolization cytoplasmic) of 1000 mg/kg-day. It also gave an NOEL (M, Nonneoplastic effects_Lymph nodes - Mandibular, atrophy) of 1000 mg/kg-day, an NOEL (M, Nonneoplastic effects_Lymph nodes - Mesenteric, atrophy) of 1000 mg/kg-day and an LOEL (M, Nonneoplastic effects_Nose - Olfactory epithelium, degeneration) of 250 mg/kg-day. It also gave an LOEL (M, Nonneoplastic effects_Nose - Olfactory epithelium, hyperplasia) of 250 mg/kg-day, an LOEL (M, Nonneoplastic effects_Nose - Olfactory epithelium, inflammation, suppurative) of 1000 mg/kg-day and an NOEL (M, Nonneoplastic effects_Nose - Respiratory epithelium, hyperplasia) of 1000 mg/kg-day. It also gave an NOEL (M, Nonneoplastic effects_Nose - Respiratory epithelium, inflammation, chronic active) of 1000 mg/kg-day, an NOEL (M, Nonneoplastic effects_Spleen - Atrophy) of 1000 mg/kg-day and an LOEL (M, Nonneoplastic effects_Spleen - Extramedullary hematopoiesis, increased) of 500 mg/kg-day. The NOEL (M, Nonneoplastic effects_Testes - Germinal epithelium, degeneration) was 1000 mg/kg-day, the NOEL (M, Nonneoplastic effects_Testes - Interstitial cell, atrophy) was 1000 mg/kg-day and the NOEL (M, Nonneoplastic effects_Testes - Seminiferous tubule, spermatid retention) was 1000 mg/kg-day. For the same compound, the NOEL (M, Nonneoplastic effects_Thymus - Atrophy) was 1000 mg/kg-day, the NOEL (M, Nonneoplastic effects_Thymus - Lymphocyte, apoptosis) was 1000 mg/kg-day and the NOEL (M, Nonneoplastic effects_Thyroid gland - Follicular cell hypertrophy) was 1000 mg/kg-day. It also gave an LOEL (M, Organ weights_Liver - Absolute) of 500 mg/kg-day, an LOEL (M, Organ weights_Liver - Relative) of 250 mg/kg-day and an NOEL (M, Organ weights_R. adrenal gland - Absolute) of 1000 mg/kg-day. The NOEL (M, Organ weights_R. adrenal gland - Relative) was 1000 mg/kg-day, the NOEL (M, Organ weights_R. kidney - Absolute) was 1000 mg/kg-day and the LOEL (M, Organ weights_R. kidney - Relative) was 500 mg/kg-day. The NOEL (M, Organ weights_R. testis - Absolute) was 1000 mg/kg-day, the NOEL (M, Organ weights_Spleen - Absolute) was 1000 mg/kg-day and the NOEL (M, Organ weights_Spleen - Relative) was 1000 mg/kg-day. The LOEL (M, Organ weights_Thymus - Absolute) was 1000 mg/kg-day, the NOEL (M, Organ weights_Thymus - Relative) was 1000 mg/kg-day and the NOEL (M, Organ weights_Thyroid gland - Absolute) was 1000 mg/kg-day. The NOEL (M, Organ weights_Thyroid gland - Relative) was 1000 mg/kg-day, the LOEL (M, Reproductive toxicity_Altered sperm parameters) was 1000 mg/kg-day and the NOEL (M, Survival rates) was 1000 mg/kg-day. The LOEL (M, body weight) was 1000 mg/kg-day.
